Experimental data from patent publication US9771358B2, “Dihydropyrimidine compounds and their application in pharmaceuticals” (SUNSHINE LAKE PHARMA CO., LTD., priority 2014, dated 2017).

System: HBV
Experiment: In-vitro anti-HBV activity in stable HBV-producing cell line (HepG2.2.15), HBV DNA by qPCR
Type: cell-based
Conditions: Hepatitis B virus, 168 h; HepG2.2.15 cells, HBV DNA in culture fluid, day 7, top concentration 16.4 μM
Procedure: HBV DNA contents in cell culture fluid were detected by the qPCR-based assay and 50% effective concentration (EC50) values of the compounds against HBV were calculated. Specific procedures are as follows:
HepG2.2.15 cells were seeded into each well of 96-well plates, 40,000 cells per well. Cells were treated with cell culture medium containing compounds with different concentrations for 24 hours after cell seeding. The final concentration of each compound was 16.4 μM in each well and each compound was diluted to desired concentration using 3-fold gradient dilution protocol, 9 diluted points in duplicate. The culture mediums containing the compounds were refreshed on day 4 post cell seeding. Culture media were collected from the HepG2.2.15 plates on day 7 post cell seeding followed by HBV DNA extraction.
HBV DNA extraction: The HBV DNA extraction was performed using QIAamp 96 DNA Blood Kit (QIAGEN 51161).
PCR for quantification: PCR mix was prepared according to PCR system. PCR mix was dispensed to 96-well optical reaction plates (special for quantification). The standard diluted proportionally was added. Then the sample was added; The plates were sealed with optical adhesive film; PCR system was performed according to programs.
Percentage of HBV inhibition of DNA replication by compound was calculated using the following equation: % Inh.=[1-HBV DNA quantity of sample/HBV DNA quantity of DMSO control]×100.
Calculating EC50 value of compounds to HBV replication: the EC50 values were calculated based on “four-parameter logistic equation” and using GraphPad Prism 5 analysis software.

| SMILES | EC50 |
| --- | --- |
| CCOC(=O)C1=C(CN2CCOC(CCC(=O)O)C2)NC(c2nccs2)=NC1c1ccc(F)cc1Br (racemic) [contrast 1, 3-(4-((6-(2-bromo-4-fluorophenyl)-5-(ethoxycarbonyl)-2-(thiazol-2-yl)-3,6-dihydropyrimidin-4-yl)methyl)morpholin-2-yl)propanoic acid, reference compound] | 260 nM |
| CCOC(=O)C1=C(CN2CCOC(CCC(=O)O)C2)NC(c2nccs2)=NC1c1ccc(F)cc1Cl (racemic) [contrast 2, 3-(4-((6-(2-chloro-4-fluorophenyl)-5-(ethoxycarbonyl)-2-(thiazol-2-yl)-3,6-dihydropyrimidin-4-yl)methyl)morpholin-2-yl)propanoic acid, reference compound] | 360 nM |
| COC(=O)C1=C(CN2CCOC(CCC(=O)O)C2)NC(c2nccs2)=NC1c1ccc(F)cc1Cl (racemic) [contrast 3, 3-(4-((6-(2-chloro-4-fluorophenyl)-5-(methoxycarbonyl)-2-(thiazol-2-yl)-3,6-dihydropyrimidin-4-yl)methyl)morpholin-2-yl)propanoic acid, reference compound] | 290 nM |
| COC(=O)C1=C(CN2CCOC(CCC(=O)O)C2)NC(c2nccs2)=NC1c1ccc(F)cc1Br (racemic) [contrast 4, 3-(4-((6-(2-bromo-4-fluorophenyl)-5-(methoxycarbonyl)-2-(thiazol-2-yl)-3,6-dihydropyrimidin-4-yl)methyl)morpholin-2-yl)propanoic acid, reference compound] | 250 nM |
| CCOC(=O)C1=C(CN2CCOC(CCC(=O)O)C2)NC(c2nccs2)=NC1c1ccc(Cl)cc1Cl (racemic) [contrast 5, 3-(4-((6-(2,4-dichlorophenyl)-5-(ethoxycarbonyl)-2-(thiazol-2-yl)-3,6-dihydropyrimidin-4-yl)methyl)morpholin-2-yl)propanoic acid, reference compound] | 230 nM |
| COC(=O)C1=C(CN2CCOC(CCC(=O)O)C2)NC(c2nccs2)=NC1c1ccc(Cl)cc1Cl (racemic) [contrast 6, 3-(4-((6-(2,4-dichlorophenyl)-5-(methoxycarbonyl)-2-(thiazol-2-yl)-3,6-dihydropyrimidin-4-yl)methyl)morpholin-2-yl)propanoic acid, reference compound] | 210 nM |
| CCOC(=O)C1=C(CN2CCOCC2CCC(=O)O)NC(c2nccs2)=NC1c1ccc(F)cc1Cl (racemic) [contrast 7, 3-(4-((6-(2-chloro-4-fluorophenyl)-5-(ethoxycarbonyl)-2-(thiazol-2-yl)-3,6-dihydropyrimidin-4-yl)methyl)morpholin-3-yl)propanoic acid, reference compound] | 92 nM |
| COC(=O)C1=C(CN2CCOCC2CCC(=O)O)NC(c2nccs2)=NC1c1ccc(F)cc1Cl (racemic) [contrast 8, 3-(4-((6-(2-chloro-4-fluorophenyl)-5-(methoxycarbonyl)-2-(thiazol-2-yl)-3,6-dihydropyrimidin-4-yl)methyl)morpholin-3-yl)propanoic acid, reference compound] | 90 nM |
| CCOC(=O)C1=C(CN2CCOCC2CCC(=O)O)NC(c2nccs2)=NC1c1ccc(Cl)cc1Cl (racemic) [contrast 9, 3-(4-((6-(2,4-dichlorophenyl)-5-(ethoxycarbonyl)-2-(thiazol-2-yl)-3,6-dihydropyrimidin-4-yl)methyl)morpholin-3-yl)propanoic acid, reference compound] | 63 nM |
| COC(=O)C1=C(CN2CCOCC2CCC(=O)O)NC(c2nccs2)=NC1c1ccc(Cl)cc1Cl (racemic) [contrast 10, 3-(4-((6-(2,4-dichlorophenyl)-5-(methoxycarbonyl)-2-(thiazol-2-yl)-3,6-dihydropyrimidin-4-yl)methyl)morpholin-3-yl)propanoic acid, reference compound] | 59 nM |
| CCOC(=O)C1=C(CN2CCOCC2CCC(=O)O)NC(c2nccs2)=NC1c1ccc(F)cc1Br (racemic) [contrast 11, 3-(4-((6-(2-bromo-4-fluorophenyl)-5-(ethoxycarbonyl)-2-(thiazol-2-yl)-3,6-dihydropyrimidin-4-yl)methyl)morpholin-3-yl)propanoic acid, reference compound] | 80 nM |
| COC(=O)C1=C(CN2CCOCC2CCC(=O)O)NC(c2nccs2)=NC1c1ccc(F)cc1Br (racemic) [contrast 12, 3-(4-((6-(2-bromo-4-fluorophenyl)-5-(methoxycarbonyl)-2-(thiazol-2-yl)-3,6-dihydropyrimidin-4-yl)methyl)morpholin-3-yl)propanoic acid, reference compound] | 75 nM |
| CCOC(=O)C1=C(CN2CCO[C@H](CC(C)C(=O)O)C2)NC(c2nccs2)=N[C@H]1c1ccc(F)cc1Br (stereo partly drawn) [Example 3, 3-((R)-4-(((R)-6-(2-Bromo-4-fluorophenyl)-5-(ethoxycarbonyl)-2-(thiazol-2-yl)-3,6-dihydropyrimidin-4-yl)methyl)morpholin-2-yl)-2-methylpropanoic acid] | 135 nM |
| CCOC(=O)C1=C(CN2CCO[C@H](C(C)CC(=O)O)C2)NC(c2nccs2)=N[C@H]1c1ccc(F)cc1Br (stereo partly drawn) [Example 4, 3-((R)-4-(((R)-6-(2-Bromo-4-fluorophenyl)-5-(ethoxycarbonyl)-2-(thiazol-2-yl)-3,6-dihydropyrimidin-4-yl)methyl)morpholin-2-yl)butanoic acid] | 116 nM |
| CCOC(=O)C1=C(CN2CCO[C@H](C)[C@H]2CCC(=O)O)NC(c2nccs2)=N[C@H]1c1ccc(F)cc1Br [Example 5, 3-((2R,3R)-4-(((R)-6-(2-Bromo-4-fluorophenyl)-5-(ethoxycarbonyl)-2-(thiazol-2-yl)-3,6-dihydropyrimidin-4-yl)methyl)-2-methylmorpholin-3-yl)propanoic acid] | 306 nM |
| CCOC(=O)C1=C(CN2CCO[C@H](CCCCC(=O)O)C2)NC(c2nccs2)=N[C@H]1c1ccc(F)cc1Br [Example 7, 5-((R)-4-(((R)-6-(2-Bromo-4-fluorophenyl)-5-(ethoxycarbonyl)-2-(thiazol-2-yl)-3,6-dihydropyrimidin-4-yl)methyl)morpholin-2-yl)pentanoic acid] | 72 nM |
| CCOC(=O)C1=C(CN2CCOC[C@H]2CCC(=O)O)NC(c2nccs2)=N[C@H]1c1ccc(F)cc1Br [Example 8, 3-((R)-4-(((R)-6-(2-Bromo-4-fluorophenyl)-5-(ethoxycarbonyl)-2-(thiazol-2-yl)-3,6-dihydropyrimidin-4-yl)methy)morpholin-3-yl)propanoic acid] | 25 nM |
| COC(=O)C1=C(CN2CCOC[C@H]2CCC(=O)O)NC(c2nccs2)=N[C@H]1c1ccc(F)cc1Br [Example 14, 3-((R)-4-(((R)-6-(2-Bromo-4-fluorophenyl)-5-(methoxycarbonyl)-2-(thiazol-2-yl)-3,6-dihydropyrimidin-4-yl)methyl)morpholin-3-yl)propanoic acid] | 140 nM |
| CCOC(=O)C1=C(CN2CCOC[C@@H]2CCC(=O)O)NC(c2nccs2)=N[C@H]1c1ccc(F)cc1Br [Example 15, 3-((S)-4-(((R)-6-(2-Bromo-4-fluorophenyl)-5-(ethoxycarbonyl)-2-(thiazol-2-yl)-3,6-dihydropyrimidin-4-yl)methyl)morpholin-3-yl)propanoic acid] | 7.94 nM |
